Experimental data taken from US5753673A, “Quinolinecarboxylic acid derivatives” (Taisho Pharmaceutical Co., Ltd., priority 1994, dated 1998).
Where a name gives a salt, the structure may show the parent alone. Read-outs that look alike come from different tables or passages of the source.

How the values were obtained:
[1] = molecular target: T1, serotonin 4 receptor (5-HT4) (Cavia porcellus, UniProt O70528); assay: Stimulating activity on serotonin 4 receptor (twitch response in guinea pig ileum); type: cell-based
T1 construct: from tissue; host or cells: longitudinal muscle strips of guinea pig ileum (Harley guinea pigs)
Description: Stimulating activity on serotonin 4 receptor
From Harley guinea pigs weighing 250 to 400 g, a section of ileum 10 to 20 cm proximal to the ileocecal junction was removed. Longitudinal muscle strips obtained from the ileum were used for this assay. The preparations were suspended in Krebs' solution at 32 to 34° C., bubbled continuously with 95% O2 and 5% CO2, and subjected to initial tension of about 0.8 g. Responses were recorded isometrically. Twitch responses were evoked by electrical stimulation (0.2 Hz, 1 msec pulse duration). The preparations were stimulated at supramaximal voltage for 2 to 3 hours, and were then allowed to equilibrate for about 1 hour at submaximal voltage. […] The preparations were left for at least 45 minutes before cumulative addition of each agonist.
The quinolinecarboxylic acid derivatives of the present invention were employed as sample compounds. For comparison, the following compounds were employed. These compounds were diluted by dissolving them in distilled water or in DMSO.
The data obtained was analyzed by RS1 (BBN Software Product Co.).

5-HT4 receptor = molecular target: T2, 5-HT4 receptor (Cavia porcellus, UniProt O70528); assay: Inhibition of 5-HT4 receptor-binding ([^3 H]GR113808 binding in guinea pig ileum)
T2 construct: The longitudinal muscle strip from guinea pig was homogenized; from tissue; host or cells: membranes of guinea pig ileum longitudinal muscle strip
Description: Effect on inhibition of 5-HT4 receptor-binding
The effect on inhibition of 5-HT4 receptor-binding of the quinolinecarboxylic acid derivatives of the present invention was examined according to the method described in GROSSMAN et al., Br. J. Pharmacol., 109, 618 (1993).
The longitudinal muscle strip from guinea pig was homogenized in 0.32M sucrose with a Teflon-glass homogenizer. After centrifugation at 900 G for 10 minutes, the upper fraction of lipids and precipitates was discarded and the supernatant was centrifuged at 100,000 G (48,000 rpm) for an hour. The pellet was resuspended in 50 mM HEPES buffer. After incubation at 37° C. for 30 minutes, the suspension was centrifuged at 48,000 rpm for 20 minutes. The pellet was suspended in HEPES buffer supplemented with 10^-6 M pargyline and 0.1% ascorbic acid. The suspension was used for the binding assay.
Non-specific binding was defined as that taken in the presence of 3×10^-5 M 5-HT. B/F separation was performed through GF/B filter treated with 0.1% polyethyleneimine, using a cell harvester. Washing was performed once.

Dopamine D2 receptor = molecular target: T3, Dopamine D2 receptor (Rattus norvegicus, UniProt P61169); assay: Selectivity for receptors: dopamine D2 receptor, inhibition of [^3 H] raclopride binding to rat striatal membrane; details: [^3 H] raclopride 1 nM, symbol, no activity in 10 μM, read-out: Dopamine D2 receptor antagonizing action (IC50)
T3 construct: The rat striatum was homogenized in 50 mM Tris hydrochloride buffer; from tissue; host or cells: rat striatal membranes
Description: (§1) The selectivity for receptors of the quinolinecarboxylic acid derivatives of the present invention was examined by the following method.
The affinity to dopamine 2 (D2) receptor was examined according to the method described in MALMBERG, A. et al., Mol Pharmacol., 43, 749-754 (1993).
The affinity for D2 receptor was studied in terms of the inhibition of [^3 H] raclopride (Daiichi Kagaku Yakuhin Co.) binding to rat striatal membrane. The rat striatum was homogenized in 50 mM Tris hydrochloride buffer (pH 7.4) followed by centrifugation at 48,000 G. The pellet was washed once with Tris hydrochloride buffer. Then the pellet was suspended in 50 mM Tris hydrochloride buffer (containing 120 mM NaCl, 5 mM KCl, 2 mM CaCl2, 1 mM MgCl2, pH 7.4) and provided for use as the membrane preparation. The membrane preparation (0.5 mg protein/ml) was reacted with 1 nM [3H] raclopride at 25° C. for 60 minutes. After the reaction, the membrane was caught by a harvester. Non-specific binding was defined as that taken in the presence of 10 μM haloperidol.

5-HT3 receptor = molecular target: T4, 5-HT3 receptor (Rattus norvegicus, UniProt P35563); assay: Selectivity for receptors: 5-HT3 receptor, inhibition of [^3 H]GR65630 binding to rat cerebral cortex membrane; details: [^3 H]GR65630 0.2 nM, read-out: 5-HT3 receptor antagonizing action (IC50)
T4 construct: The rat cerebral cortex was homogenized in 50 mM Tris hydrochloride buffer; from tissue; host or cells: rat cerebral cortex membranes
T4 sequence (P35563 24-483): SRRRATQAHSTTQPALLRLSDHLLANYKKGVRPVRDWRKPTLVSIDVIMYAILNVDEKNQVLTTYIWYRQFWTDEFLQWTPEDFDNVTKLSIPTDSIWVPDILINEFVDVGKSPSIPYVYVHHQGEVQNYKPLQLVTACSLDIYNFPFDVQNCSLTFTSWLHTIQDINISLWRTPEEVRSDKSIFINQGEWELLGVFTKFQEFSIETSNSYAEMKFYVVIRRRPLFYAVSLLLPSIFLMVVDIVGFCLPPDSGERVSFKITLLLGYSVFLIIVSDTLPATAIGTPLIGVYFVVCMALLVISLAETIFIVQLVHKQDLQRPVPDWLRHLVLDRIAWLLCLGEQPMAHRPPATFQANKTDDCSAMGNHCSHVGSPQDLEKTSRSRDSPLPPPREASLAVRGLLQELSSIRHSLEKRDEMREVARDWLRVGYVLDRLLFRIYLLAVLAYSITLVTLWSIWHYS
Description: as §1
The affinity for serotonin 3 receptor was examined by the method described in […], G. J. et al., Nature (London), 330, 746-748 (1987).
The affinity to serotonin 3 (5-HT3) was examined in terms of inhibition of [^3 H]GR65630 binding (Daiichi Kagaku Yakuhin Co.) binding to rat cerebral cortex membrane. The rat cerebral cortex was homogenized in 50 mM Tris hydrochloride buffer (pH 7.4) followed by centrifugation at 48,000 G. The precipitates were washed once with Tris hydrochloride buffer. Then the precipitates were suspended in 50 mM Tris hydrochloride buffer and provided for use as the membrane preparation. The membrane preparation was reacted with 0.2 nM [^3 H]GR65630 at 37° C. for 30 minutes. After the reaction, the membrane was caught by a harvester. Non-specific binding was defined as the binding taken in the presence of 1 μM zacopride.

5-HT1A receptor = molecular target: T5, 5-HT1A receptor (Rattus norvegicus, UniProt P19327); assay: Selectivity for receptors: 5-HT1A receptor, inhibition of [^3 H] 8-OH-DPAT binding to rat cerebral cortex membrane; details: [^3 H] 8-OH-DPAT 1 nM, rat cerebral cortex membrane; symbol, no activity in 10 μM; read-out: 5-HT1A receptor antagonizing action (IC50)
T5 construct: The rat cerebral cortex was homogenized in 50 mM Tris hydrochloride buffer; from tissue; host or cells: rat cerebral cortex membranes
T5 sequence (P19327 1-422): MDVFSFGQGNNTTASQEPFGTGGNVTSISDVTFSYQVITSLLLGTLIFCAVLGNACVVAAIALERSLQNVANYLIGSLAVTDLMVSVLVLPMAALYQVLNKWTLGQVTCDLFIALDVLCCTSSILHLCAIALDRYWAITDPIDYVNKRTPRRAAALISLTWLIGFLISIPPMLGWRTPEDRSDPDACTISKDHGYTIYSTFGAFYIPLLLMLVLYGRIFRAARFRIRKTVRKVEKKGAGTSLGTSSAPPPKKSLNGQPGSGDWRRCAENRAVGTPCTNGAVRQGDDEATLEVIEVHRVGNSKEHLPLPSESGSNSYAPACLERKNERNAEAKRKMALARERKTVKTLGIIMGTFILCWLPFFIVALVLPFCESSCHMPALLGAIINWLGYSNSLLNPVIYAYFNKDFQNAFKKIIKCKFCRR
Description: as §1
The affinity to serotonin 1A (5-HT1A) receptor was examined by the method described in […], J. R. et al., Biochem. Pharmacol., 12, 1943-1949 (1986).
The affinity to serotonin 1A (5-HT1A) was examined in terms of inhibition of [^3 H] 8-OH-DPAT (Daiichi Kagaku Yakuhin Co.) binding to rat cerebral cortex membrane. The rat cerebral cortex was homogenized in 50 mM Tris hydrochloride buffer (pH 7.4) followed by centrifugation at 48,000 G.
The pellet was washed once with Tris hydrochloride buffer. Then the pellet was suspended in 50 mM Tris hydrochloride buffer (supplemented with 0.01 mM pargyline and 0.1% ascorbic acid, pH 7.7) and provided for use as the membrane preparation. The membrane specimen was reacted with 1 nM [^3 H] 8-OH-DPAT at 37° C. for 15 minutes. After the reaction, the membrane was caught by a harvester. Non-specific binding was defined as that taken in the presence of 10 μM 5-HT.

T3 sequence (P61169 whole entry): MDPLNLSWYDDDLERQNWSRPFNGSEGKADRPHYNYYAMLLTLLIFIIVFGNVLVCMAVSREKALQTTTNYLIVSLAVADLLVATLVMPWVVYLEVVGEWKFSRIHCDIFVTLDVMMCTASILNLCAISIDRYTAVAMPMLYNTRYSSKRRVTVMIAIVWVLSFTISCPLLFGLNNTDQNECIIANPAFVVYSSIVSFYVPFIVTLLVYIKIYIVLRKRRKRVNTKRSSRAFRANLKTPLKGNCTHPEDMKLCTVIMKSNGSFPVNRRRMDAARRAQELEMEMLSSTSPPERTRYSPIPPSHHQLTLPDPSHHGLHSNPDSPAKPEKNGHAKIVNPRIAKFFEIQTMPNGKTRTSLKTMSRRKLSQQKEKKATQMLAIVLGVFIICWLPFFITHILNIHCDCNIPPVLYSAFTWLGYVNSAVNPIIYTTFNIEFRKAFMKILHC
T2 sequence (O70528 whole entry): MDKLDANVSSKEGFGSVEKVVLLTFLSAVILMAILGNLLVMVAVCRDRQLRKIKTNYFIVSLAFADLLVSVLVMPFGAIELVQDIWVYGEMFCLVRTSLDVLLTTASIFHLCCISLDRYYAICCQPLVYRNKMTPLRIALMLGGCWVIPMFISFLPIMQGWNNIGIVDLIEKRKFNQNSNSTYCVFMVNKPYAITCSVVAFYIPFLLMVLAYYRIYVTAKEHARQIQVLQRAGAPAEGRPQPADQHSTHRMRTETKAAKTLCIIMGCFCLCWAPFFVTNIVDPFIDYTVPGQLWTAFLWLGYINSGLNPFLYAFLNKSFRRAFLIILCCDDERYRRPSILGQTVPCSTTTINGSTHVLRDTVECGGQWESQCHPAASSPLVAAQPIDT
T1 sequence (O70528 whole entry): as above

| Structure (SMILES) | EC50 [1] [nM] | IC50 (5-HT4 receptor) [nM] | IC50 (Dopamine D2 receptor) [µM] | IC50 (5-HT3 receptor) [nM] | IC50 (5-HT1A receptor) [µM] | EC50 ([1]; twitch response in guinea pig ileum, maximum contraction of sample compound = 100%, read-out: ED50 (concentration enhancing the twitch response by 50%)) [nM] |
| --- | --- | --- | --- | --- | --- | --- |
| CCOCCN1C2CCC1CC(NC(=O)c1cc3ccccc3n(C(C)C)c1=O)C2 (stereo not drawn) [Compound 11, Endo-N-(8-(2-ethoxyethyl)-8-azabicyclo[3.2.1]oct-3-yl)-1-isopropyl-2-oxo-1,2-dihydro-3-quinolinecarboxamide] | 18.7 | 68.7 ± 7.32 | > 10 | 423 | > 10 | – |
| COCCN1[C@@H]2CC[C@H]1C[C@@H](NC(=O)c1cc3ccccc3n(C(C)C)c1=O)C2 [Compound 10, endo-N-(8-(2-methoxyethyl)-8-azabicyclo[3.2.1]oct-3-yl)-1-isopropyl-2-oxo-1,2-dihydro-3-quinolinecarboxamide hydrochloride] | 15 | 78.5 ± 14.6 | > 10 | 811 | > 10 | – |
| CC(=O)CCCN1[C@@H]2CC[C@H]1C[C@@H](OC(=O)c1cc3ccccc3n(C(C)C)c1=O)C2 [Compound 53, Endo-8-(4-oxopentyl)-8-azabicyclo[3.2.1]oct-3-yl 1-isopropyl-2-oxo-1,2-dihydro-3-quinolinecarboxylate hydrochloride] | 26.4 | – | – | – | – | – |
| COc1ccc(N2[C@@H]3CC[C@H]2C[C@@H](OC(=O)c2cc4ccccc4n(C(C)C)c2=O)C3)cc1 [Compound 57, endo-8-(4-methoxyphenyl)-8-azabicyclo[3.2.1]oct-3-yl 1-isopropyl-2-oxo-1,2-dihydro-3-quinolinecarboxylate, reference compound] | – | – | – | – | – | > 3000 |
| CSCCN1[C@@H]2CC[C@H]1C[C@@H](OC(=O)c1cc3ccccc3n(C(C)C)c1=O)C2 [Compound 45, Endo-8-(2-(methylthio)ethyl)-8-azabicyclo[3.2.1]oct-3-yl 1-isopropyl-2-oxo-1,2-dihydro-3-quinolinecarboxylate] | 29.5 | – | – | – | – | – |
| CCOC(=O)CCCN1C2CCC1CC(NC(=O)c1cc3ccccc3n(C(C)C)c1=O)C2 (stereo not drawn) [Compound 27, Endo-N-(8-(3-(ethoxycarbonyl)propyl)-8-azabicyclo[3.2.1]oct-3-yl)-1-isopropyl-2-oxo-1,2-dihydro-3-quinolinecarboxamide hydrochloride] | 19.3 | – | – | – | – | – |
| COCCOCCN1[C@@H]2CC[C@H]1C[C@@H](OC(=O)c1cc3ccccc3n(C(C)C)c1=O)C2 [Compound 59, Endo-8-(2-(2-methoxyethoxy)ethyl)-8-azabicyclo[3.2.1]oct-3-yl 1-isopropyl-2-oxo-1,2-dihydro-3-quinolinecarboxylate hydrochloride] | 73.7 | – | – | – | – | – |
| CCOCCN1[C@@H]2CC[C@H]1C[C@@H](OC(=O)c1cc3ccccc3n(C(C)C)c1=O)C2 [Compound 43, Endo-8-(2-ethoxyethyl)-8-azabicyclo[3.2.1]oct-3-yl 1-isopropyl-2-oxo-1,2-dihydro-3-quinolinecarboxylate hydrochloride] | 15.2 | – | – | – | – | – |
| CC(C)n1c(=O)c(C(=O)OC2CC3CCC(C2)N3CCCO)cc2ccccc21 (stereo not drawn) [Compound 38, Endo-8-(3-hydroxypropyl)-8-azabicyclo[3.2.1]oct-3-yl 1-isopropyl-2-oxo-1,2-dihydro-3-quinolinecarboxylate] | 11.9 | – | – | – | – | – |
| CC(C)n1c(=O)c(C(=O)NC2CC3CCC(C2)N3CCCCCO)cc2ccccc21 (stereo not drawn) [Compound 7, Endo-N-(8-(5-hydroxypentyl)-8-azabicyclo[3.2.1]oct-3-yl)-1-isopropyl-2-oxo-1,2-dihydro-3-quinolinecarboxamide] | 30.8 | – | – | – | – | – |
| CC(C)n1c(=O)c(C(=O)N[C@H]2C[C@H]3CC[C@@H](C2)N3CCN2CCOCC2)cc2ccccc21 [Compound 20, endo-N-(8-(2-morpholinoethyl)-8-azabicyclo[3.2.1]oct-3-yl)-1-isopropyl-2-oxo-1,2-dihydro-3-quinolinecarboxamide] | 25.5 | 78.1 ± 14.5 | > 10 | 509 | > 10 | – |
| CC(=O)CCCN1C2CCC1CC(NC(=O)c1cc3ccccc3n(C(C)C)c1=O)C2 (stereo not drawn) [Compound 31, Endo-N-(8-(4-oxopentyl)-8-azabicyclo[3.2.1]oct-3-yl)-1-isopropyl-2-oxo-1,2-dihydro-3-quinolinecarboxamide] | 52.3 | – | – | – | – | – |
| CC(C)n1c(=O)c(C(=O)NC2CC3CCC(C2)N3CCCO)cc2ccccc21 (stereo not drawn) [Compound 5, Endo-N-(8-(3-hydroxypropyl)-8-azabicyclo[3.2.1]oct-3-yl)-1-isopropyl-2-oxo-1,2-dihydro-3-quinolinecarboxamide] | 32 | 42.2 ± 6.29 | > 10 | 977 | > 10 | – |
